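Test compounds were applied to cells in 96-well plates for 48 hours at 5 doses. GI50 is the concentration that inhibits growth by half.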 Calls of active or inactive are those of the source. Cut-off read from the data, not from the text of the source: active = GI50 up to about 1.1 µM and inactive = higher.
Legend:
Test in all cases: NCI anticancer screen, dose series, 48 h
[1] = test system: A549
[2] = test system: EKVX
[3] = test system: HOP-92
[4] = test system: K562
[5] = test system: MOLT-4
[6] = test system: NCI-H226
[7] = test system: NCI-H522
[8] = test system: RPMI-8226
[9] = test system: RXF 393
[10] = test system: SF-539
[11] = test system: SK-MEL-5
[12] = test system: SN12C
[13] = test system: SNB-19
[14] = test system: SNB-75
[15] = test system: U-251
[16] = test system: UO-31
[17] = test system: UACC-62

SMILES | GI50 [1] | GI50 [2] | GI50 [3] | GI50 [4] | GI50 [5] | GI50 [6] | GI50 [7] | GI50 [8] | GI50 [9] | GI50 [10] | GI50 [11] | GI50 [12] | GI50 [13] | GI50 [14] | GI50 [15] | GI50 [16] | GI50 [17]
COc1ccccc1NC(=O)C1=C(C)NC(C)=C(C(=O)Nc2ccccc2OC)C1c1ccc(N(C)C)cc1 | 42.6 µM (inactive) | 27.4 µM (inactive) | 6.52 µM (inactive) | 18.9 µM (inactive) | 18.8 µM (inactive) | 19.6 µM (inactive) | 17.6 µM (inactive) | 16.6 µM (inactive) | 21.7 µM (inactive) | 37.5 µM (inactive) | 30.8 µM (inactive) | 26.9 µM (inactive) | 55.8 µM (inactive) | 30.8 µM (inactive) | 30.4 µM (inactive) | 36 µM (inactive) | 
CCOc1ccc(/N=N/c2ccc3oc(=O)c(/C(C)=N\NC(=O)CC(=O)Nc4ccc(Cl)cc4)cc3c2)cc1 | 20.7 µM (inactive) | 8.36 µM (inactive) | 25.2 µM (inactive) | 17.3 µM (inactive) | 4.09 µM (inactive) | 88.9 µM (inactive) | 18.6 µM (inactive) | 16.2 µM (inactive) | 14.2 µM (inactive) | 17.5 µM (inactive) | 14.3 µM (inactive) | 26.1 µM (inactive) | 27.3 µM (inactive) |  | 16.4 µM (inactive) | 12.2 µM (inactive) | 10.1 µM (inactive)
Cc1cc(C)n(-c2nsc3ccccc23)n1 | > 100 µM (inactive) | 91.4 µM (inactive) | 80.5 µM (inactive) | 89.1 µM (inactive) | > 100 µM (inactive) |  |  | > 100 µM (inactive) | > 100 µM (inactive) | > 100 µM (inactive) | > 100 µM (inactive) | > 100 µM (inactive) | > 100 µM (inactive) | 26.9 µM (inactive) | > 100 µM (inactive) | > 100 µM (inactive) | > 100 µM (inactive)
CC(=O)NNc1nc(C)c(C(=O)NNC(=O)C(=O)Nc2c(C)cccc2C(C)C)s1 | 61 µM (inactive) | > 100 µM (inactive) | 78 µM (inactive) | 46.7 µM (inactive) | 44.4 µM (inactive) | 79.4 µM (inactive) | 35.4 µM (inactive) | 57.5 µM (inactive) |  | 95.9 µM (inactive) | 95.1 µM (inactive) | > 100 µM (inactive) | > 100 µM (inactive) |  | 5.97 µM (inactive) | > 100 µM (inactive) | 59.7 µM (inactive)
NC(=O)N/N=C/C(/C=N/NC(N)=O)[N+](=O)[O-] | > 100 µM (inactive) | > 100 µM (inactive) | > 100 µM (inactive) | > 100 µM (inactive) |  | > 100 µM (inactive) | > 100 µM (inactive) | > 100 µM (inactive) | > 100 µM (inactive) | > 100 µM (inactive) |  | > 100 µM (inactive) | > 100 µM (inactive) | > 100 µM (inactive) |  |  | > 100 µM (inactive)
CC1(c2ccc[n+](Cc3ccccc3)c2)OCCO1 | > 100 µM (inactive) | > 100 µM (inactive) |  | > 100 µM (inactive) | > 100 µM (inactive) | > 100 µM (inactive) | > 100 µM (inactive) | > 100 µM (inactive) | > 100 µM (inactive) | > 100 µM (inactive) | > 100 µM (inactive) | > 100 µM (inactive) | > 100 µM (inactive) | > 100 µM (inactive) | > 100 µM (inactive) | > 100 µM (inactive) | > 100 µM (inactive)
CCOC(=O)Oc1ccc2[nH]c3c(C)cc(N)c(C)c3c2c1 | > 100 µM (inactive) | > 100 µM (inactive) |  | > 100 µM (inactive) | 78.9 µM (inactive) | > 100 µM (inactive) | > 100 µM (inactive) | 72.3 µM (inactive) |  | > 100 µM (inactive) | > 100 µM (inactive) | > 100 µM (inactive) | > 100 µM (inactive) | > 100 µM (inactive) |  | > 100 µM (inactive) | 
CC(=O)OC1COC(N2C(=O)/C(=N\NC(N)=S)c3cc(Br)ccc32)C(OC(C)=O)C1OC(C)=O (configuration not stated) | 43.3 µM (inactive) | 56.1 µM (inactive) | > 100 µM (inactive) | 48 µM (inactive) | 39.3 µM (inactive) | > 100 µM (inactive) | > 100 µM (inactive) | 17.6 µM (inactive) | 63.5 µM (inactive) | 43.5 µM (inactive) | 85.9 µM (inactive) | > 100 µM (inactive) | > 100 µM (inactive) |  | 53.5 µM (inactive) |  | 35.6 µM (inactive)
CCCN(CCCC(NC(C)=O)C(=O)NCc1ccccc1)C(=O)NCCCl (configuration not stated) | > 100 µM (inactive) | > 100 µM (inactive) | > 100 µM (inactive) | > 100 µM (inactive) | > 100 µM (inactive) | > 100 µM (inactive) | > 100 µM (inactive) | > 100 µM (inactive) | > 100 µM (inactive) | > 100 µM (inactive) |  | > 100 µM (inactive) | > 100 µM (inactive) | > 100 µM (inactive) | > 100 µM (inactive) | > 100 µM (inactive) | > 100 µM (inactive)
COC(=O)C1=CO[C@@H](OC2CC(CO)C(O)C(O)C2O)[C@@H]2[C@@H](C)[C@@H](OC(=O)/C=C/c3ccccc3)[C@@H](O)[C@H]12.COC(=O)C1=CO[C@@H](OC2CC(CO)C(O)C(O)C2O)[C@@H]2[C@@H](C)[C@@H](OC(=O)c3ccccc3)[C@@H](O)[C@H]12 (some centres not stated) | > 100 µM (inactive) | > 100 µM (inactive) | > 100 µM (inactive) | > 100 µM (inactive) | > 100 µM (inactive) | > 100 µM (inactive) | > 100 µM (inactive) | > 100 µM (inactive) |  | > 100 µM (inactive) | > 100 µM (inactive) | > 100 µM (inactive) | 10 µM (inactive) | > 100 µM (inactive) | > 100 µM (inactive) | > 100 µM (inactive) | > 100 µM (inactive)
CCCNC1=C(C(=O)OCC)C(=O)CO1 | > 100 µM (inactive) | > 100 µM (inactive) | > 100 µM (inactive) | > 100 µM (inactive) | > 100 µM (inactive) | > 100 µM (inactive) |  | > 100 µM (inactive) | > 100 µM (inactive) | > 100 µM (inactive) | > 100 µM (inactive) | > 100 µM (inactive) | > 100 µM (inactive) | > 100 µM (inactive) | > 100 µM (inactive) | > 100 µM (inactive) | > 100 µM (inactive)
O=C1NC(=S)NC(=O)C1=CC1CC1 | > 100 µM (inactive) | > 100 µM (inactive) | > 100 µM (inactive) | > 100 µM (inactive) | > 100 µM (inactive) | > 100 µM (inactive) | > 100 µM (inactive) | > 100 µM (inactive) | > 100 µM (inactive) | > 100 µM (inactive) | > 100 µM (inactive) | > 100 µM (inactive) | > 100 µM (inactive) | 46.3 µM (inactive) | > 100 µM (inactive) | > 100 µM (inactive) | > 100 µM (inactive)
CCOC(=O)C1=C(OC(OCC)C(C)[Se]c2ccccc2)CCC1 (configuration not stated) | 49.9 µM (inactive) | 21.6 µM (inactive) | 24.5 µM (inactive) | 42.8 µM (inactive) | 15.9 µM (inactive) | 16.6 µM (inactive) | 13.1 µM (inactive) | 13 µM (inactive) | 15.7 µM (inactive) | 17.5 µM (inactive) | 19.1 µM (inactive) | 14.6 µM (inactive) | 36.1 µM (inactive) | 30.1 µM (inactive) | 6.78 µM (inactive) | 24.7 µM (inactive) | 15.2 µM (inactive)
Cc1ccc(C(=O)C(C)N)cc1C (configuration not stated) | > 100 µM (inactive) | > 100 µM (inactive) |  | > 100 µM (inactive) | > 100 µM (inactive) | > 100 µM (inactive) | > 100 µM (inactive) | > 100 µM (inactive) | > 100 µM (inactive) | > 100 µM (inactive) | > 100 µM (inactive) | > 100 µM (inactive) | > 100 µM (inactive) | > 100 µM (inactive) | > 100 µM (inactive) | > 100 µM (inactive) | > 100 µM (inactive)
CC(=O)OC1CC2C(C)(C)C(=O)C=C[C@]2(C)C2CCC3(C)C(=CC(=O)C3c3ccoc3)[C@]12C (some centres not stated) | 15.1 µM (inactive) | 15.7 µM (inactive) | 19.9 µM (inactive) | 9.55 µM (inactive) | 13.2 µM (inactive) | 17.8 µM (inactive) |  | 14.9 µM (inactive) | 2.3 µM (inactive) | 16.9 µM (inactive) | 13.1 µM (inactive) | 16.7 µM (inactive) | 15.6 µM (inactive) | 12.5 µM (inactive) |  | 18.9 µM (inactive) | 13 µM (inactive)
COCC1N=C(c2cc(OC)c(OC)c(OC)c2-c2cc3c(cc2[C@H](C)O)OCO3)O[C@H]1c1ccccc1 (some centres not stated) | 56.8 µM (inactive) | > 100 µM (inactive) | 27.2 µM (inactive) | > 10 µM (inactive) | 41.6 µM (inactive) | > 100 µM (inactive) |  | 31 µM (inactive) |  | 69.7 µM (inactive) | 42.4 µM (inactive) | 46.5 µM (inactive) | 61 µM (inactive) | 49.2 µM (inactive) | 65.2 µM (inactive) | 58.6 µM (inactive) | > 100 µM (inactive)
C[C@]12CCC(=O)C=C1CC[C@@H]1[C@@H]2[C@@H](O)C[C@@]2(C)[C@H]1CC[C@]2(O)C(=O)COC(=O)CCC1CCCC1 [HYDROCORTISONE CYPIONATE] | > 100 µM (inactive) | > 100 µM (inactive) | > 100 µM (inactive) |  | > 100 µM (inactive) | 0.0728 µM (active) | > 100 µM (inactive) |  | > 100 µM (inactive) | > 100 µM (inactive) | > 100 µM (inactive) | 0.693 µM (active) | > 100 µM (inactive) | > 100 µM (inactive) | > 100 µM (inactive) | > 100 µM (inactive) | > 100 µM (inactive)

From ChEMBL document CHEMBL1201862, “PubChem BioAssay data set” (2004)
